# Assays:
# [1] = SnEt2 drug solubility in MCT oil with excipient combinations (Example 1); details: invention emulsion
# Protocol: After incubating for 30 minutes at 55° C., the tubes stand overnight at room temperature (19°-22° C). The tubes are centrifuged to remove bulk precipitates, and supernatants are filtered through 0.45 μm nylon membrane to remove any undissolved drug. Aliquots of filtrate are then diluted in chloroform:isopropyl alcohol (1:1) for spectrophotometric determination of drug concentration (absorbance at 662 nm). Reference standards are prepared with known concentrations of SnEt2 in the same solvent.
# [2] = test system: transplantable, FANFT-induced, urothelial tumors; assay: photodynamic treatment of transplantable FANFT-induced urothelial tumors with SnEt2 emulsion and red light (Example 4); assay type: in vivo, Fischer 344 rats
# Protocol: (§1) Fischer 344 rats, engrafted with transplantable, chemically-induced (FANFT) urothelial tumors, were treated with tin ethyl etiopurpurin (SnEt2) and red light (660 nm). SnEt2 was administered as a bolus injection via lateral tail vein, using the emulsion described by the present invention. Tumor response was assessed in groups of nine animals injected with one of four doses of drug and exposed to one of three different doses of light, as summarized in FIG. 1. Control animals received emulsion vehicle without drug. Animals were monitored for tumor re-growth, tissue changes at treatment site, and general health three times per week for a period of 30 days after light treatment.
# By determining the number of tumor-free rats 30 days after each treatment, tumor dose-response curves for drug and light were generated, shown in FIG. 1.
# [3] = general health / adverse events after drug-emulsion treatment (Example 4); assay type: in vivo, Fischer 344 rats; details: i.v. bolus in emulsion plus red light, 30 days
# Protocol: as §1
# [4] = Protocol: Mixtures of MCT oil, egg phospholipids, ethanol, and SnEt2 were incubated with different bile salts, all at 4.6 mM^1, under the same conditions described above in Example 1.
# [5] = pH 8.0
# Protocol: In particular, net electronegative charge (Zeta potential) on the emulsified oil droplets is measured by changes in electrophoretic mobility at pH 8.0 (Malvern Zetasizer 2c). […] A relationship between Zeta potential and physical stability of colloidal systems has been documented.
Structure (SMILES),SnEt2 concentration delivered by the present invention relative to 0.08 mg/ml [1],"dose and light response by the tumor ([2]; four drug doses, three light doses, 30 days)","tumor treatment outcome ([2]; i.v. bolus in emulsion, red laser light 660 nm, 30 days after treatment)",adverse clinical events [3],deaths attributable to drug-emulsion treatment [3],SnEt2 Concentration [4],SnEt2 Concentration Normalized [4],effect on Zeta potential of phospholipid-stabilized emulsions [5]
"CCOC(=O)C1=Cc2c3nc(cc4nc(cc5[n-]c(cc6[n-]c2c(C)c6CC)c(C)c5CC)C(C)=C4CC)[C@@H](C)[C@]13CC.[Cl-].[Cl-].[Sn] (racemic) [SnEt2, Tin ethyl etiopurpurin]",over ten times,A dose and light response by the tumor was demonstrated,effective in the treatment,No adverse clinical events were observed,no deaths occurred,1.26 mg/gm Oil,1.00,
C[C@H](CCC(=O)O)[C@H]1CC[C@H]2[C@@H]3[C@H](O)C[C@@H]4C[C@H](O)CC[C@]4(C)[C@H]3C[C@H](O)[C@]12C [sodium cholate],,,,,,,,increases the Zeta potential

# Source: patent US5616342A, “Emulsioin suitable for administering a poorly water-soluble photosensitizing compound and use thereof” (PDT, Inc., priority 1995, dated 1997)
